# Data from US9630977B2, “Cephalosporin derivatives and pharmaceutical compositions thereof” (Legochem Biosciences, Inc., priority 2011, dated 2017).
# Like-named read-outs stand apart in the source and are kept apart here.
# Experiments:
# Assay in all cases: In vitro antibacterial activity test (broth microdilution)
# Format in all cases: cell-based
# [1] = test system: A. baumannii 46
# Protocol: (§1) To evaluate antibacterial activity of each of the compounds of Examples 1 to 68, in vitro antibacterial activity test was performed.
# (§2) The in vitro antibacterial activity was evaluated by measuring MIC90 (ug/mL) of each of the compounds of Examples 1 to 68, which is defined as the lowest concentration of an antibiotic that will inhibit the visible growth of 90% of microorganisms after incubation as compared with a control group to which the antibiotic is not treated. MIC90 values were measured by the broth microdilution method developed by the Clinical and Laboratory Standards Institute (CLSI) (see CLSI M7-A5, Methods for Dilution Antimicrobial Susceptibility Test for Bacteria that Grow Aerobically-Fifth Edition (2000): CLSI, Villanova, Pa.).
# (§3) In vitro antibacterial activity was measured with respect to the following 19 clinical isolates: M. catarrhalis; P. aeruginosa (5 strains); K. pneumoniae (6 strains); A. baumannii (3 strains); E. coli (2 strains); A. calcoaceticus; and E. cloacae.
# (§4) Test compounds each (the cephalosporin derivative compounds prepared in Examples 1 to 68) were dissolved in DMSO at the concentration of 10,240 ug/mL, were diluted by two fold with DMSO, and then were diluted by twenty fold with sterilized distilled water. The final concentration in the antibacterial activity test was in the range of […] to 128 ug/mL, and the final concentration of DMSO used as an adjuvant was 2.5% (V/V).
# [2] = test system: A. baumannii 49
# Protocol: as §1, §2, §3, §4
# [3] = test system: A. baumannii 52
# Protocol: as §1, §2, §3, §4
# [4] = test system: A. calcoaceticus ATCC15473
# Protocol: as §1, §2, §3, §4
# [5] = test system: E. cloacae β19
# Protocol: as §1, §2, §3, §4
# [6] = test system: E. coli AG100
# Protocol: as §1, §2, §3, §4
# [7] = test system: E. coli β4
# Protocol: as §1, §2, §3, §4
# [8] = test system: K. pneumoniae 2011E
# Protocol: as §1, §2, §3, §4
# [9] = test system: K. pneumoniae β14
# Protocol: as §1, §2, §3, §4
# [10] = test system: P. aeruginosa 1912E
# Protocol: as §1, §2, §3, §4
# [11] = test system: P. aeruginosa 37
# Protocol: as §1, §2, §3, §4
# [12] = test system: P. aeruginosa 40
# Protocol: as §1, §2, §3, §4
# [13] = test system: P. aeruginosa 6065Y
# Protocol: as §1, §2, §3, §4
# [14] = test system: P. aeruginosa 43; conditions: Pseudomonas aeruginosa
# Protocol: as §1, §2, §3, §4
# [15] = test system: M. catarrhalis 2524; conditions: Moraxella catarrhalis; M. catarrhalis 2524; read-out: MIC90
# Protocol: as §1, §2, §3, §4
# [16] = Acinetobacter baumannii, A. baumannii 46, read-out: MIC90
# [17] = Acinetobacter baumannii, A. baumannii 49, read-out: MIC90
# [18] = Acinetobacter baumannii, A. baumannii 52, read-out: MIC90
# [19] = Acinetobacter calcoaceticus, A. calcoaceticus ATCC15473, read-out: MIC90
# [20] = Enterobacter cloacae, read-out: MIC90
# [21] = Escherichia coli, AG100, E. coli AG100, read-out: MIC90
# [22] = Escherichia coli, read-out: MIC90
# [23] = Klebsiella pneumoniae, 2011E, K. pneumoniae 2011E, read-out: MIC90
# [24] = Klebsiella pneumoniae, read-out: MIC90
# [25] = Pseudomonas aeruginosa, 1912E, read-out: MIC90
# [26] = Pseudomonas aeruginosa, 37, P. aeruginosa 37, read-out: MIC90
# [27] = Pseudomonas aeruginosa, 40, P. aeruginosa 40, read-out: MIC90
# [28] = Pseudomonas aeruginosa, read-out: MIC90
# [29] = Acinetobacter baumannii, 46, A. baumannii 46
# [30] = Acinetobacter baumannii, 49, A. baumannii 49
# [31] = Acinetobacter calcoaceticus, ATCC15473, A. calcoaceticus ATCC15473
# [32] = Pseudomonas aeruginosa, 37, P. aeruginosa 37
# [33] = P. aeruginosa 43, read-out: MIC90
"MIC90 [1, 16] [µg/mL]","MIC90 [2, 17] [µg/mL]","MIC90 [3, 18] [µg/mL]","MIC90 [4, 19] [µg/mL]","MIC90 [5, 20] [µg/mL]","MIC90 [6, 21] [µg/mL]","MIC90 [7, 22] [µg/mL]","MIC90 [8, 23] [µg/mL]","MIC90 [9, 24] [µg/mL]","MIC90 [10, 25] [µg/mL]","MIC90 [11, 26] [µg/mL]","MIC90 [12, 27] [µg/mL]","MIC90 [13, 28] [µg/mL]","MIC90 [14, 33] [µg/mL]",Compound,further results
128,> 128,> 128,16,> 128,8,16,4,64,32,> 128,64,128,,CC(C)(O/N=C(\C(=O)N[C@@H]1C(=O)N2C(C(=O)[O-])=C(C[n+]3cnc(N)c(NCCCC(=O)O)c3)CSC12)c1csc(N)n1)C(=O)O (stereo partly drawn) [Compound 38],
8,128,128,1,128,0.5,8,1,32,4,128,4,16,,CC(=O)Nc1c[n+](CC2=C(C(=O)[O-])N3C(=O)[C@@H](NC(=O)/C(=N\OC(C)(C)C(=O)O)c4csc(N)n4)C3SC2)cnc1N (stereo partly drawn) [Compound 68],
,,,,,,,,,,,,,,CC(C)(O/N=C(\C(=O)N[C@@H]1C(=O)N2C(C(=O)[O-])=C(C[n+]3cnc(N)c(NC(=O)CCN)c3)CSC12)c1csc(N)n1)C(=O)O (stereo partly drawn) [Compound 48],"MIC90 [1, 29]: 8 µg/mL; MIC90 [2, 30]: 128 µg/mL; MIC90 ([3]; Acinetobacter baumannii, 52): 128 µg/mL; MIC90 [4, 31]: 0.5 µg/mL; MIC90 ([5]; Enterobacter cloacae): 128 µg/mL; MIC90 ([6]; Escherichia coli, AG100): 2 µg/mL; MIC90 ([7]; Escherichia coli): 2 µg/mL; MIC90 ([8]; Klebsiella pneumoniae, 2011E): 4 µg/mL; MIC90 ([9]; Klebsiella pneumoniae): 16 µg/mL; MIC90 ([10]; Pseudomonas aeruginosa, 1912E): 8 µg/mL; MIC90 [11, 32]: 64 µg/mL; MIC90 ([12]; Pseudomonas aeruginosa, 40): 8 µg/mL; MIC90 ([13]; Pseudomonas aeruginosa, 6065Y): 16 µg/mL"
8,> 128,> 128,8,128,1,16,1,8,8,128,32,128,4,CNc1nc[n+](CC2=C(C(=O)[O-])N3C(=O)[C@@H](NC(=O)/C(=N\OC(C)(C)C(=O)O)c4csc(N)n4)C3SC2)cc1N (stereo partly drawn) [Compound 39],
2,128,128,0.5,16,< 0.0625,1,0.25,128,32,2,0.5,1,0.5,C[C@H](O/N=C(\C(=O)N[C@@H]1C(=O)N2C(C(=O)[O-])=C(C[n+]3cnc(N)c(NCCNC(=O)c4ccc(O)c(O)c4)c3)CSC12)c1csc(N)n1)C(=O)O (stereo partly drawn) [Compound 34],MIC90 [15]: 1 µg/mL
16,> 128,> 128,4,16,1,2,2,32,1,2,2,4,1,CN(CCNc1c[n+](CC2=C(C(=O)[O-])N3C(=O)[C@@H](NC(=O)/C(=N\OC(C)(C)C(=O)O)c4csc(N)n4)C3SC2)cnc1N)C(=O)c1ccc(O)c(O)c1 (stereo partly drawn) [Compound 27],MIC90 [15]: 0.25 µg/mL
1,> 128,128,1,4,0.125,2,0.5,16,1,2,0.5,0.5,0.5,CC(C)(O/N=C(\C(=O)N[C@@H]1C(=O)N2C(C(=O)[O-])=C(C[n+]3cnc(N)c(NCCNC(=O)c4ccc(O)c(O)c4)c3)CSC12)c1csc(N)n1)C(=O)O (stereo partly drawn) [Compound 30],
2,> 128,128,0.25,2,< 0.0625,1,1,64,32,1,0.125,0.5,0.25,C[C@H](O/N=C(\C(=O)N[C@@H]1C(=O)N2C(C(=O)[O-])=C(C[n+]3cnc(N)c(NCCNC(=O)c4cc(=O)c(O)cn4O)c3)CSC12)c1csc(N)n1)C(=O)O (stereo partly drawn) [Compound 3],MIC90 [15]: 2 µg/mL
4,4,2,0.5,0.5,< 0.0625,1,2,16,2,0.25,1,2,1,C[C@H](O/N=C(\C(=O)N[C@@H]1C(=O)N2C(C(=O)[O-])=C(C[n+]3cnc(N)c(NCCNC(=O)c4ccc(O)c(O)c4)c3)CSC12)c1nc(N)sc1Cl)C(=O)O (stereo partly drawn) [Compound 35],MIC90 [15]: < 0.0625 µg/mL
8,32,32,4,8,2,2,8,16,2,2,4,8,4,CN(CCNc1c[n+](CC2=C(C(=O)[O-])N3C(=O)[C@@H](NC(=O)/C(=N\OC(C)(C)C(=O)O)c4csc(N)n4)C3SC2)cnc1N)Cc1ccc(O)c(O)c1 (stereo partly drawn) [Compound 29],
,,,,,,,,,,,,,,CC(C)(O/N=C(\C(=O)N[C@@H]1C(=O)N2C(C(=O)[O-])=C(C[n+]3cnc(N)c(NCCN)c3)CSC12)c1csc(N)n1)C(=O)O (stereo partly drawn) [Compound 37],"MIC90 [1, 29]: 4 µg/mL; MIC90 [2, 30]: 128 µg/mL; MIC90 ([3]; Acinetobacter baumannii, 52): 64 µg/mL; MIC90 [4, 31]: 1 µg/mL; MIC90 ([5]; Enterobacter cloacae): 16 µg/mL; MIC90 ([6]; Escherichia coli, AG100): 4 µg/mL; MIC90 ([7]; Escherichia coli): 4 µg/mL; MIC90 ([8]; Klebsiella pneumoniae, 2011E): 8 µg/mL; MIC90 ([9]; Klebsiella pneumoniae): 16 µg/mL; MIC90 ([10]; Pseudomonas aeruginosa, 1912E): 4 µg/mL; MIC90 [11, 32]: 16 µg/mL; MIC90 ([12]; Pseudomonas aeruginosa, 40): 4 µg/mL; MIC90 ([13]; Pseudomonas aeruginosa, 6065Y): 8 µg/mL"
64,> 128,> 128,2,> 128,0.5,16,0.5,16,8,> 128,16,64,,CC(C)(O/N=C(\C(=O)N[C@@H]1C(=O)N2C(C(=O)[O-])=C(C[n+]3cnc(N)c(N)c3)CSC12)c1csc(N)n1)C(=O)O (stereo partly drawn) [Compound 36],
,,,,,,,,,,,,,,CC(C)(O/N=C(\C(=O)N[C@@H]1C(=O)N2C(C(=O)[O-])=C(C[n+]3cnc(N)c(NCCN)c3)CSC12)c1csc(N)n1)C(=O)O (stereo partly drawn) [Compound 49],MIC90 ([1]; A. baumannii 46): 8 µg/mL; MIC90 ([2]; A. baumannii 49): 64 µg/mL; MIC90 ([3]; A. baumannii 52): 64 µg/mL; MIC90 ([4]; A. calcoaceticus ATCC15473): 2 µg/mL; MIC90 [5]: 32 µg/mL; MIC90 ([6]; E. coli AG100): 4 µg/mL; MIC90 [7]: 8 µg/mL; MIC90 ([8]; K. pneumoniae 2011E): 8 µg/mL; MIC90 [9]: 32 µg/mL; MIC90 [10]: 2 µg/mL; MIC90 ([11]; P. aeruginosa 37): 8 µg/mL; MIC90 ([12]; P. aeruginosa 40): 4 µg/mL; MIC90 [14]; 43: > 128 µg/mL; MIC90 [13]: 16 µg/mL
,,,,,,,,,,,,,,CC(C)(O/N=C(\C(=O)N[C@@H]1C(=O)N2C(C(=O)[O-])=C(C[n+]3cnc(N)c(NCCNC(=N)N)c3)CSC12)c1csc(N)n1)C(=O)O (stereo partly drawn) [Compound 40],"MIC90 [1, 29]: 2 µg/mL; MIC90 [2, 30]: 128 µg/mL; MIC90 ([3]; Acinetobacter baumannii, 52): 128 µg/mL; MIC90 [4, 31]: 0.25 µg/mL; MIC90 ([5]; Enterobacter cloacae): 32 µg/mL; MIC90 ([6]; Escherichia coli, AG100): 4 µg/mL; MIC90 ([7]; Escherichia coli): 8 µg/mL; MIC90 ([8]; Klebsiella pneumoniae, 2011E): 16 µg/mL; MIC90 ([9]; Klebsiella pneumoniae): 8 µg/mL; MIC90 ([10]; Pseudomonas aeruginosa, 1912E): 4 µg/mL; MIC90 [11, 32]: 8 µg/mL; MIC90 ([12]; Pseudomonas aeruginosa, 40): 8 µg/mL; MIC90 [14]; 43: 32 µg/mL; MIC90 ([13]; Pseudomonas aeruginosa, 6065Y): 16 µg/mL"
